# Laboratory results from patent US10039741B2, “Use of delta tocopherol for the treatment of lysosomal storage disorders” (The United States of America, as represented by the …, priority 2010, dated 2018).
# What was measured:
# Type in all cases: cell-based, human
# NPC cells = tested on: NPC cells
# Method: We disclose that the compound's cytotoxicity could interfere with these cell-based assays that often appeared as the false positives for cholesterol reduction and lysosome size decrease. […] Although the tocotrienol effect on these NPCD cells were observed, they were more toxic in our assays and the additional compound purification (to 99%).
# To measure the cytotoxicity of compounds, an ATP content assay was used with a commercial assay kit (ATP-Lite, PerkinElmer). Cells were seeded in white solid 1536-well plates and treated with compounds same as in the cholesterol oxidase assay describe above. After 3-day compound treatment, 3 μl/well detection mixture (prepared according to the manufacturer's instructions) was added to each well and the plates were incubated for 10 min at room temperature followed by a measurement using a Viewlux plate reader in a luminescence mode. The buffer in the detection mixture lyses cells and releases cellular ATP which reacts with luciferin in the presence of luciferase to produce light. The luminescence signal reduces if the cells are killed by the compound during the 3-day treatment.
# NPCD fibroblasts = assay: Filipin cholesterol staining assay; conditions: NPCD patient cells
# Method: Filipin dye staining was used to determine the level of free cholesterol accumulation in cells (27, 28). Cells were seeded at 1000 cells/well in 100 μl medium in the black/clear bottom, tissue culture treated 96-well plates (Greiner Bio-One, Monroe, N.C.) for culture overnight or in a designated time. The cells were washed twice with the HBBS buffer and fixed with 100 μl/well 3.2% formaldehyde at room temperature for 30 minutes. After three times of plate wash with PBS buffer, cells were stained with 50 μg/ml filipin, which was freshly-dissolved in DMSO at 10 mg/ml and then diluted in PBS buffer. Samples were then washed twice with PBS buffer and stored in 4° C. On the day of imaging, cells were stained with 2 μM of CellMask Red (Invitrogen, H32711) in PBS at room temperature for 1 h. Samples were viewed and photographed using a Nikon Eclipse Ti microscope with a 20× objective equipped with CCD camera. DAPI filter and TRITC filter were used to visualize filipin and CellMask Red, respectively. The images were processed by Adobe Photoshop.
# WT fibroblasts = assay: Microarray gene expression; design: ACACA expression, Toco treat WT / HMGCR expression, Toco treat WT / SREBF2 expression, Toco treat WT / LDLR expression, Toco treat WT: unit not given here; conditions: 40 μM delta-tocopherol 5 days vs DMSO-treated
# Method: Five NPC fibroblast cell lines as well as five normal fibroblast cell lines were treated with 40 μM delta-tocopherol for 5 days with a medium change and sully of fresh compound on 3rd day. The total RNAs was prepared as the standard method described previously ( ). The microarray gene expression experiment was carried out in a core microarray facility at NHGRI with a set of AAAAA chips (Affymetrix). Partek Genomics Software Suite (Copyright, Partek Inc.) was used to perform analysis of microarray data. Affymetrix cell files were loaded into the software using the RMA algorithm, which involved background correction, quantile normalization, log-2 transformation, and median polish summarization. PCA and hierarchical clustering identified one sample as an outlier. This sample (sample number 12) was not considered for further analysis. ANOVA was performed to identify the differentially expressed genes for three comparisons: 1) NPC_DMSO vs WT_DMSO 2) NPC tocopherol-treated vs NPC_DMSO-treated and 3) WT_tocopherol-treated vs WT_DMSO-treated.
compound,measurement,setting,value
Cc1cc(O)cc2c1O[C@](C)(CCC[C@H](C)CCC[C@H](C)CCCC(C)C)CC2 [δ-tocopherol],cytotoxicity,NPC cells,not present
same,free cholesterol accumulation (filipin staining),NPCD fibroblasts,significantly reduced
same,"ABCA1 expression, Toco treat WT",WT fibroblasts,−1.4
same,"ACACA expression, Toco treat WT",WT fibroblasts,−1.5
same,"DHCR7 expression, Toco treat WT",WT fibroblasts,−1.6
same,"FADS2 expression, Toco treat WT",WT fibroblasts,−2.0
same,"FRRS1 expression, Toco treat WT",WT fibroblasts,−1.1
same,"HMGCR expression, Toco treat WT",WT fibroblasts,−1.5
same,"HMGCS1 expression, Toco treat WT",WT fibroblasts,−1.6
same,"INSIG1 expression, Toco treat WT",WT fibroblasts,−1.6
same,"LDLR expression, Toco treat WT",WT fibroblasts,−2.0
same,"MMP1 expression, Toco treat WT",WT fibroblasts,5.0
same,"MMP3 expression, Toco treat WT",WT fibroblasts,2.0
same,"NOX4 expression, Toco treat WT",WT fibroblasts,−1.7
same,"SC4MOL expression, Toco treat WT",WT fibroblasts,−1.7
same,"SCD expression, Toco treat WT",WT fibroblasts,−3.5
same,"SREBF1 expression, Toco treat WT",WT fibroblasts,−1.2
same,"SREBF2 expression, Toco treat WT",WT fibroblasts,−1.6
